Counter-ions that a name gives are not always drawn. Like-named read-outs stand apart in the source and are kept apart here.
Legend:
MOLM13 [1] = test: Tumor growth inhibitory activities in nude mice xenograft model inoculated with human leukemia cells MOLM13; format: in vivo; settings: Mus musculus, MOLM-13, po, read-out: TGIR (%) (measurement date); for inhibition in vivo at 50 mg/kg: 50 mg/kg orally once a day
Protocol: Pharmacological Test Example 5
Tumor Growth Inhibitory Activities in Nude Mice Xenograft Model Inoculated with Human Leukemia Cells
Human leukemia cells MOLM13 (subdivided from Hayashibara Biochemical Laboratories, Inc.) were subcutaneously transplanted into nude mice. […] The test compound suspended or dissolved in 0.5% methylcellulose was orally administered at a dose of 0.1 ml per 10 g body weight once a day for 9 days. For the control group, only vehicle was administered.
The tumor growth inhibition rate (TGIR) was calculated as follows:
The tumor growth inhibition rate (TGIR)=(1−TX/CX)×100
wherein CX represents the volume of tumor at day X for the control group when the tumor volume at the day of the start of the administration (day 1) was presumed to be 1; and TX represents the volume of tumor at day X for test compound administration groups.

MOLM13 [2] = test: Cell growth inhibitory activities on cultured human leukemia cells MOLM-13 (WST-1); format: cell-based; settings: 3 days culture
MOLM13 [3] = test: Cell growth inhibitory activity using MTT method (MOLM13); format: cell-based, human; settings: MOLM13 cells
Protocol: Pharmacological Test Example 3
Measurement of Cell Growth Inhibitory Activity Using MTT Method
Human leukemia cell line MOLM13 (subdivided from Hayashibara Biochemical Laboratories, Inc.) was cultured in an RPMI medium containing 10% fetal calf serum (purchased from Asahi Techno Glass Corporation) within a 5% carbon dioxide incubator until the cell density reached 50 to 90% of the maximum cell density. These cells were seeded into wells, containing an RPMI medium containing 10% fetal calf serum, in a 96-well flat bottom plate in an amount of […] per well. The amount of the solution of the medium in each well was brought to 100 μl, and a test compound was added thereto to 500 ng, 100 ng, 20 ng, and 4 ng per ml. After culture within an incubator for 72 hr, 10 μl of a 5 mg/ml MTT (3-(4,5-dimethylthiazol-2-yl)-2,5-diphenyl tetrazolium bromide) solution (purchased from SIGMA) was added to the medium, and a reaction was allowed to proceed for 4 hr. Thereafter, 100 μl of a 0.04 N hydrochloric acid-isopropanol solution was added to completely dissolve the resultant MTT formazan crystal. After the dissolution, absorbance at 550 nm was measured using 620 nm as a reference wavelength with a microplate reader (DIGISCAN) (It is regarded that, in the MTT method, the viable cell count is reflected, and linearity is observed in a cell count per well range of 5×10^5 to 2×10^2 cells). After 72 hr, the absorbance of only the medium free from cells was subtracted from the absorbance of the well without the addition of the test compound to determine a value which was presumed to be 100%. On the other hand, the absorbance with the addition of the compound was expressed in terms of % growth.

SMILES | IC50 (MOLM13 [2]; Homo sapiens, MOLM-13, 72 h) [nM] | IC50 (MOLM13 [3]; Homo sapiens, MOLM-13, 72 h) [nM] | other results
COc1cc2nccc(Oc3ccc(NC(=O)NCCC(C)(C)C)cc3)c2cc1OC [Compound 1, 1-[4-(6,7-Dimethoxy-quinolin-4-yloxy)-phenyl]-3-(3,3-dimethyl-butyl)-urea hydrochloride] | 1 | 24.4 | inhibition in vivo at 50 mg/kg (MOLM13 [1]; 264 h, day 11): 53.8%
COc1cc2nccc(Oc3c(Cl)cc(NC(=O)NCCC(C)(C)C)cc3Cl)c2cc1OC [Compound 6, 1-[3,5-Dichloro-4-(6,7-dimethoxy-quinolin--4-yloxy)-phenyl]-3-(3,3-dimethyl-butyl)-urea] | 21 | 12.4 | –
COc1cc2nccc(Oc3ccc(NC(=O)NCCC(C)(C)C)cc3Cl)c2cc1OC [Compound 8, 1-[3-Chloro-4-(6,7-dimethoxy-quinolin-4-yloxy)-phenyl]-3-(3,3-dimethyl-butyl)-urea] | 3 | 13.3 | –
COc1cc2nccc(Oc3ccc(NC(=O)NCCC(C)(C)C)cc3F)c2cc1OC [Compound 10, 1-[4-(6,7-Dimethoxy-quinolin-4-yloxy)-3-fluoro-phenyl]-3-(3,3-dimethyl-butyl)-urea hydrochloride] | 2 | 20.8 | inhibition in vivo at 50 mg/kg (MOLM13 [1]; 240 h, day 10): 84.8%
COc1cc2c(Oc3ccc(NC(=O)NCCC(C)(C)C)c(F)c3)ccnc2cc1OCCN1CCOCC1 [Compound 41, 1-(3,3-Dimethyl-butyl)-3-{2-fluoro-4-[6-methoxy-7-(2-morpholin-4-yl-ethoxy)-quinolin-4-yloxy]-phenyl}-urea hydrochloride] | – | – | IC50 (MOLM13 [2]; hydrochloride): 75 nM; IC50 (MOLM13 [3]; 72 hr, hydrochloride): 34.8 nM
COc1cc2c(Oc3ccc(NC(=O)NCCC(C)(C)C)c(F)c3)ccnc2cc1OCCN1CCCCC1 [Compound 43, 1-(3,3-Dimethyl-butyl)-3-{2-fluoro-4-[6-methoxy-7-(2-piperidin-1-yl-ethoxy)-quinolin-4-yloxy]-phenyl}-urea hydrochloride] | 22 | 32.5 | inhibition in vivo at 50 mg/kg (MOLM13 [1]; 240 h, day 10): 98.1%
COc1cc2c(Oc3ccc(NC(=O)NCCC(C)(C)C)cc3F)ccnc2cc1OCCN1CCCCC1 [Compound 44, 1-(3,3-Dimethyl-butyl)-3-{3-fluoro-4-[6-methoxy-7-(2-piperidin-1-yl-ethoxy)-quinolin-4-yloxy]-phenyl}-urea] | 3 | 19.3 | inhibition in vivo at 12.5 mg/kg (MOLM13 [1]; 216 h, 12.5 mg/kg orally once a day, day 9): 99.6%; inhibition in vivo at 25 mg/kg (MOLM13 [1]; 216 h, 25 mg/kg orally once a day, day 9): 99.8%

From US20080207617A1, “Quinoline Derivatives and Quinazoline Derivatives Inhibiting Autophosphrylation of Flt3 and Medicinal Compositions Containing the Same” (KIRIN BEER KABUSHIKI KAISHA, priority 2002, published 2008)
